The record followed here is patent US20100041672A1, “USE OF QUINOLINE DERIVATIVES IN THE TREATMENT OF PAIN AND IRRITABLE BOWEL SYNDROME” (GLAXO GROUP LIMITED, priority 2007, published 2010).

Each structure is given as a SMILES string. Entries after “also recorded” stand apart in the source; their conditions may differ.

In experiment [1] the test system is Random Hooded rats. Nature of the experiment: rat joint pain model of chronic inflammatory pain (intra-articular FCA, hind paw weight bearing). The format is in vivo. The following applies: for Statistics for hypersensitivity data (weight bearing), significance vs vehicle, Day 17: Day 17 post FCA; for Statistics for hypersensitivity data (weight bearing), significance vs vehicle, Day 15: Day 15 post FCA; for Statistics for hypersensitivity data (weight bearing), significance vs vehicle, Day 14: Day 14 post FCA; for effect on hypersensitivity in the joint pain model of chronic inflammatory pain: once daily oral dosing days 13-17 post intra-articular FCA; for Statistics for hypersensitivity data (weight bearing), significance vs vehicle, Day 13: Day 13 post FCA; for Statistics for hypersensitivity data (weight bearing), significance vs vehicle, Day 16: Day 16 post FCA. On the procedure:
Random Hooded rats, 150-180 g, obtained from Charles River UK, were anaesthetised under gaseous anaesthetic and the area surrounding the left and right knee joint shaved and cleaned as for aseptic surgery. Animals were injected with 150 μl of FCA into the left knee joint (intra-articular injection). Animals were immediately allowed to recover from anaesthetic in a warmed/oxygenated environment until being returned to their home cage on paper bedding. No further post-op care was provided.
Rats were tested prior to surgery and from 18 h post FCA (minimum of once weekly) for weight bearing (g) and joint diameter (mm). Weight bearing is measured by the animal's ability to place body weight across both hind paws on a Dual Channel Weight Averager which was calibrated each day prior to use using a 10 g weight (Rat capacitance tester—Linton Instruments). Hind paw weight bearing data was calculated and expressed as the percentage of the contralateral paw.
All data were expressed as mean±s.e.m.
Prior to FCA intra-articular injection into the left knee, rats display even weight bearing. By day 1 post-insult weight bearing had shifted such that the majority of the body weight was transmitted through the contralateral limb. By day 10 this effect was maintained and at this point animals were randomised across treatment groups. Once daily dosing with vehicle, SB742457 or celecoxib began on day 13 and continued up to and including day 17.
Rats were tested prior to surgery and from 18 h post FCA (minimum of once weekly) for weight bearing (g) and joint diameter (mm). Weight bearing is measured by the animal's ability to place body weight across both hind paws on a Dual Channel Weight Averager which was calibrated each day prior to use using a 100 g weight (Rat capacitance tester—Linton Instruments). Hind paw weight bearing data was calculated and expressed as the percentage of the contralateral paw.
Prior to FCA intra-articular injection into the left knee, rats display even weight bearing. By day 1 post-insult weight bearing had shifted such that the majority of the body weight was transmitted through the contralateral limb. By day 10 this effect was maintained and at this point animals were randomised across treatment groups. Once daily dosing with vehicle, SB792988A or celecoxib began on day 13 and continued up to and including day 17. […] AUC was calculated using Microsoft Excel.

The test system of experiment [2] is rats. Nature of the experiment: Chronic Constriction Injury (CCI) model of neuropathic pain in rats (mechanical allodynia, Von Frey hairs). The format is in vivo, rat. Conditions: 10 mg/kg b.i.d. po. As for the experimental part:
Under Isoflurane anaesthesia, the sciatic nerve in the left leg of the rat was exposed at mid thigh level and 4 loose ligatures of Chromic 4.0 gut tied around it. The wound was closed and secured with staples. The Sham operated animals underwent the same surgical technique except that the nerve was not ligated. […] The presence of mechanical (tactile) allodynia was assessed using the manual application of Von Frey hair monofilaments (Stoelting, Wood Dale, Ill., USA). Animals were placed in clear Perspex boxes on a raised perforated metallic platform, from below which the monofilaments were applied in ascending order to the plantar region of the hind paw (range: 1.4 g-26 g). Each hair was applied for approx. 3-5 seconds until a withdrawal response was observed. The lowest hair to give a withdrawal was recorded as the response after confirmation with reapplication of lower and/or higher hairs within the range tested.
All data are expressed as mean±s.e.m. Statistical analysis was carried out using Repeated Measures ANOVA (Statistica Version 6) to compare the vehicle treated groups with the drug treated groups (P<0.05 considered significant). Area Under Curve (AUC) calculations were performed within Excel and statistical analysis was carried out using a one-way ANOVA followed by Fischer LSD post-hoc test (Statistica Version 6) to compare the vehicle treated CCI and Sham groups with the drug treated groups (P<0.05 considered significant). Data recorded in Excel (Microsoft XP) and graphs produced in GraphPad Prism (Version 4).
By 8 days post-surgery neuropathy was beginning to develop as mechanical allodynia (assessed using mVFHs) was evident in all CCI operated groups compared to the Sham operated animals. This was maintained as a stable baseline until day 23 post-surgery (FIG. 12), when the animals were randomised and then chronically dosed with either SB742457 (10 mg/kg b.i.d. po), gabapentin (30 mg/kg b.i.d. po) or vehicle (1% methylcellulose; b.i.d. po) for 8 days (days 26-33 post-surgery). […] Three days after cessation of treatment the withdrawal thresholds of the drug treated groups had decreased back towards vehicle treated baseline levels.

Where [3] appears, read: 1 mg/kg oral once daily from day 13.
Setting [4] is: 10 mg/kg oral once daily from day 13.
Where [5] appears, read: 0.1 mg/kg oral once daily from day 13, SB792988A study.
The mark [6] stands for this setting: 1 mg/kg oral once daily from day 13, SB792988A study.
Where [7] appears, read: 3 mg/kg oral once daily from day 13, SB792988A study.
[8] abbreviates: 10 mg/kg oral once daily from day 13, SB792988A study.

Consider `O=S(=O)(c1ccccc1)c1cnc2c(N3CCNCC3)cccc2c1` [SB742457, 3-Phenylsulfonyl-8-piperazin-1-yl-quinoline], for which the “Statistics for hypersensitivity data (weight bearing), significance vs vehicle, Day 17” value (“Statistics … significance vs vehicle, Day 17” below) was “** (** = p < 0.01)” in experiment [1] (0.1 mg/kg oral once daily from day 13), “*** (*** = p < 0.001)” in experiment [1] (setting [3]) and “*** (*** = p < 0.001)” in experiment [1] (setting [4]). Further, the “Statistics for hypersensitivity data, significance vs vehicle, AUC” value in experiment [1] (1 mg/kg oral once daily days 13-17) and in experiment [1] (10 mg/kg oral once daily days 13-17) was “*** (*** = p < 0.001)” in each case. Besides, the “Statistics for hypersensitivity data (weight bearing), significance vs vehicle, Day 15” value (from here on “Statistics … significance vs vehicle, Day 15”) in experiment [1] (setting [3]) and in experiment [1] (setting [4]) was “*** (*** = p < 0.001)” throughout. Further, in experiment [1] (setting [4]), the “Statistics for hypersensitivity data (weight bearing), significance vs vehicle, Day 14” value (“Statistics … significance vs vehicle, Day 14” for short) is given as “** (** = p < 0.01)”. For the same compound, in experiment [1] (all doses above and including 0.1 mg/kg), the separation from vehicle result is “significant separation from vehicle on at least one day”. For the same compound, the “effect compared with the positive control, celecoxib” value in experiment [1] (highest dose of 10 mg/kg vs 30 mg/kg celecoxib) is listed as “not statistically different”. The “effect on hypersensitivity in the joint pain model of chronic inflammatory pain” value in experiment [1] is “reversed hypersensitivity”. In addition, in experiment [2] (after 5 days of dosing), the “reversal of mechanical allodynia after 5 days of dosing” value is “not significantly different to Sham levels; also recorded: maximal reversal back to Sham levels”. In addition, the “reversal of mechanical allodynia after 8 days of dosing” value in experiment [2] (after 8 days of dosing) is “maximal reversal (P<0.001) back to Sham levels”. The “time to significant reversal of CCI-induced mechanical allodynia” value in experiment [2] (after a single dose) was at most 1 h. The “comparison with the positive control gabapentin (30 mg/kg b.i.d. po)” value in experiment [2] (throughout the study) is reported as “not significantly different to each other”.

Turning to `Cl.O=S(=O)(c1cccc(F)c1)c1cnc2c(N3CCNCC3)cccc2c1` [SB792988A, 3-[(3-Fluorophenyl)sulfonyl]-8-(1-piperazinyl)quinoline Hydrochloride], in experiment [1] (setting [5]), the “Statistics for hypersensitivity data (weight bearing), significance vs vehicle, Day 13” value is “* (* = p < 0.05)” and the “Statistics … significance vs vehicle, Day 17” value is given as “* (* = p < 0.05)”. Also, in experiment [1] (setting [6]), the “Statistics … significance vs vehicle, Day 14” value is reported as “* (* = p < 0.05)” and the “Statistics … significance vs vehicle, Day 17” value was “* (* = p < 0.05)”. Also, in experiment [1] (setting [7]), the “Statistics for hypersensitivity data (weight bearing), significance vs vehicle, Day 13” value is reported as “** (** = p < 0.01)”; the “Statistics … significance vs vehicle, Day 15” value is “*** (*** = p < 0.001)”; the “Statistics for hypersensitivity data (weight bearing), significance vs vehicle, Day 16” value is recorded as “* (* = p < 0.05)”; the “Statistics … significance vs vehicle, Day 17” value is reported as “*** (*** = p < 0.001)”. Besides, in experiment [1] (setting [8]), the “Statistics … significance vs vehicle, Day 14” value was “*** (*** = p < 0.001)”; the “Statistics … significance vs vehicle, Day 15” value is listed as “*** (*** = p < 0.001)”; the “Statistics for hypersensitivity data (weight bearing), significance vs vehicle, Day 16” value is listed as “*** (*** = p < 0.001)”; the “Statistics … significance vs vehicle, Day 17” value is recorded as “*** (*** = p < 0.001)”. For the same compound, in experiment [1] (all doses (0.1, 1, 3, 10 mg/kg)), the separation from vehicle entry is “significant separation from vehicle on various days”. Moreover, the “effect compared with the positive control, celecoxib” value in experiment [1] (highest doses of 3 and 10 mg/kg vs 30 mg/kg celecoxib) is “not statistically different”. The “effect on hypersensitivity in the joint pain model of chronic inflammatory pain” value in experiment [1] is “reversed hypersensitivity”.
